Legend:
p38 MAP kinase = molecular target: T1, p38 MAP kinase (Homo sapiens, UniProt Q16539); experiment: Inhibition of p38 (MAP) Kinase-In Vitro Assay; assay type: biochemical; conditions: approximate p38 inhibitory activities; concentration causing 50% inhibition of the p38 enzyme; γ-33P-ATP transfer to MBP; read-out: IC50 μM (P38 MAP KINASE E-03)
T1 construct: made in house; host or cells: E. coli (co-expressed with SEK-1 and MEKK)
Method: The p-38 MAP kinase inhibitory activity of compounds of this invention in vitro was determined by measuring the transfer of the y-phosphate from γ-^33P-ATP by p38 kinase to Myelin Basic Protein (MBP), using the a minor modification of the method described in Ahn et al., J. Biol. Chem., Vol. 266 (7), 4220–4227 (1991).
The phosphorylated form of the recombinant p38 MAP kinase was expressed with SEK-1 and MEKK in E. Coli (see Khokhlatchev et al., J. Biol. Chem. Vol. 272(17), pp. 11057–11062 (1997)), and then purified by affinity chromatography using a Nickel column.
The phosphorylated p38 MAP kinase was diluted in kinase buffer (20 mM 3-(N-morpholino)propanesulfonic acid, pH 7.2, 25 mM β-glycerol phosphate, 5 mM ethylene glycol-bis(beta-aminoethyl ether)-N,N,N′,N′-tetraacetic acid, 1 mM sodium vanadate, 1 mM dithiothreitol, 40 mM magnesium chloride). Test compound dissolved in DMSO or only DMSO (control) was added, and the samples were incubated for 10 min. at 30° C. The kinase reaction was initiated by the addition of a substrate cocktail containing MBP and γ-^33P-ATP. After incubating for an additional 20 min. at 30° C., the reaction was terminated by adding 0.75% phosphoric acid. The phosphorylated MBP was then separated from the residual γ-^33P-ATP using a phosphocellulose membrane (Millipore, Bedfrod, Mass.) and quantitated using a scintillation counter (Packard, Meriden, Conn.).

T1 sequence (Q16539 whole entry): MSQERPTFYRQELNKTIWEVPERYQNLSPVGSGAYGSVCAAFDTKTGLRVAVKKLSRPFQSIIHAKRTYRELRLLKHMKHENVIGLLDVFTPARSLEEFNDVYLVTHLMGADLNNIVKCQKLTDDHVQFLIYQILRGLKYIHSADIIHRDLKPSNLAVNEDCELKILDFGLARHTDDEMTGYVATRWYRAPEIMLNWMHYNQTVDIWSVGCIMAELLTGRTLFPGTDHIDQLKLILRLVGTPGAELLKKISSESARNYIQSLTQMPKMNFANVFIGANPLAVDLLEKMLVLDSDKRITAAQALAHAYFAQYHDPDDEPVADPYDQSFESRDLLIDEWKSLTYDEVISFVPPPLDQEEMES

melting point | IC50 (p38 MAP kinase) | SMILES
209.9 to 211.9 °C | < 0.05 µM | CS(=O)(=O)N1CCC(Nc2ncc3cc(Oc4ccc(F)cc4F)ncc3n2)CC1 [Example 1, [6-(2,4-Difluoro-phenoxy)-pyrido[3,4-d]pyrimidin-2-yl]-(1-methanesulfonyl-piperidin-4-yl)-amine]
 | < 0.5 µM | CC(C)Nc1ncc2cc(Oc3ccc(F)cc3F)ncc2n1 [Example 2, [6-(2,4-Difluoro-phenoxy)-pyrido[3,4-d]py-rimidin-2-yl]-iso-propyl-amine]
 | < 0.3 µM | Fc1ccc(Oc2cc3cnc(NC4CCOCC4)nc3cn2)c(F)c1 [Example 4, [6-(2,4-Difluoro-phenoxy)-pyrido[3,4-d]py-rimidin-2-yl]-(tet-rahydro-pyran-4-yl)-amine]

— patent publication US7189731B2, “Substituted 7-azaquinazoline compounds useful as p38 kinase inhibitors” (Roche Palo Alto LLC, priority 2003, dated 2007)
